Test results published in patent US20140105891A1, “TREATMENT OF CANCER” (CERULEAN PHARMA INC., priority 2012, published 2014).

Tests used:
[1] = system: HIF-2α; assay: HIF-2α levels in A2780 xenograft after CRLX101 and Bevacizumab (Western blot); type: in vivo, mouse; conditions: CRLX101 5 mg/kg i.v. q7d×2, Bevacizumab 5 mg/kg i.p. Day 1, 4, 8, tumors Day 11
Method: (§1) Tumor samples were collected on Day 11, 72 hours after the last treatment (Day 8 for both drugs) and analyzed for HIF-1α and HIF-2α levels using Western blot.

[2] = system: A2780 Ovarian Xenograft Tumors; assay: A2780 ovarian xenograft tumor growth / response rate; type: in vivo, mouse; conditions: A2780, Day 42; CRLX101 5 mg/kg IV q7d×3; Bevacizumab 5 mg/kg i.p. biweekly×3; combination at same doses
[3] = system: HIF-1α; assay: HIF-1α levels in A2780 xenograft after CRLX101 and Bevacizumab (Western blot); type: in vivo, mouse; conditions: CRLX101 5 mg/kg i.v. q7d×2, Bevacizumab 5 mg/kg i.p. Day 1, 4, 8, tumors Day 11
Method: as §1

[4] = system: H1299 human NSCLC xenograft; assay: H1299 NSCLC xenograft tumor growth delay; conditions: for tumor-free survival (TFS): CRLX101 10 mg/kg qwk×3, marketed drugs on optimal preclinical regimens; for median tumor volume (MTV) of survivors: D74 survivors, Gemcitabine 120 mg/kg
Method: H1299 cells were obtained from the American Type Culture Collection (ATCC), and the tumor line was maintained by serial engraftment in nude mice.
Body weight was measured daily on Days 1-5, then twice weekly until the completion of the study. Tumor volume was measured twice weekly and each animal was euthanized when the calculated tumor volume reached the 2000 mm^3 endpoint, or on day-88 post implantation, whichever came first.

Compound: Bevacizumab: antibody against VEGF
- HIF-2α % of Control [1]: 146 % of Control
- Partial Response (# of mice) [2]: 0 of 10
- HIF-1α % of Control [3]: 157 % of Control

Compound: Nc1ccn([C@@H]2O[C@H](CO)[C@@H](O)C2(F)F)c(=O)n1 [Gemcitabine]
- tumor-free survival (TFS) ([4]; 74 days post first treatment): 50%
- median tumor volume (MTV) of survivors ([4]; Docetaxel 30 mg/kg): 0 mm3

Compound: CC[C@@]1(O)C(=O)OCc2c1cc1n(c2=O)Cc2cc3c(CN(C)C)c(O)ccc3nc2-1 [Topotecan]
- tumor-free survival (TFS) ([4]; 74 days post first treatment): 10%

Compound: CC(=O)O[C@@]12CO[C@@H]1C[C@H](O)[C@@]1(C)C(=O)[C@H](O)C3=C(C)[C@@H](OC(=O)[C@H](O)[C@@H](NC(=O)OC(C)(C)C)c4ccccc4)C[C@@](O)([C@@H](OC(=O)c4ccccc4)[C@H]21)C3(C)C [Docetaxel]
- survival ([4]; 74 days post first treatment, docetaxel 30 mg/kg qwk×3): 20%
- median tumor volume (MTV) of survivors ([4]; Docetaxel 30 mg/kg): 302 mm3
- group mean body weight loss ([4]; Docetaxel 30 mg/kg, on D21): 9.3%
